{"source": "paper PMC12548414", "about": "(Journal of Bacteriology, 2025)", "key": {"[1]": {"test_system": "T1, E. coli pLC1021 (luc-trpAt trans-translation reporter)", "T1 construct": "pLC1021 luc-trpAt reporter strain", "design": "species or system Escherichia coli pLC1021; luc-trpAt non-stop luciferase reporter; luminescence rises when trans-translation is inhibited; normalized to KKL-35 and DMSO", "conditions": "2 h, 20 µM", "experimental": "The luciferase screen was performed as previously described ([16]). […] 48 µL of cells was transferred to white 96-well plates, and 2 µL DMSO or 20 µM compound, or 20 µM KKL-35 was added. Plates were sealed with adhesive film, vortexed gently to mix, and incubated at room temperature for 2 h. 50 µL Bright-Glo reagent (Promega, Madison, WI) was added to each well, and the plates were sealed with adhesive film, vortexed vigorously, and incubated for an additional 10 min at room temperature. Luminescence was measured at 560 nm using a SpectraMax i3 microplate reader and readings for each plate were normalized to the average of three KKL-35-treated wells (positive control) and three DMSO-treated wells (negative control) within the plate to correct for plate-to-plate and day-to-day variations. Results from at least two biological repeats were averaged, and GraphPad Prism was used to plot the data. We screened a library of 1,601 anti-tubercular small molecules for their ability to inhibit trans-translation using a luciferase reporter in Escherichia coli. In this luc-trpAt reporter, the firefly luciferase gene has a trpA transcriptional terminator before the stop codon, such that luciferase is translated from a non-stop mRNA ([16]). When trans-translation is active, the luciferase will be tagged and degraded, but when trans-translation is inhibited, active luciferase will accumulate, resulting in a luminescent signal when luciferin is added. Luciferase activity was measured after growth in the presence of compounds from the library at 20 µM, using the known trans-translation inhibitor KKL-35 as a positive control (Fig. 1A) ([16], [17]). Compounds with activity one standard deviation above the median were scored as positive (Fig. S1 and Table S1)."}, "[2]": {"target": "T2, ribosomal protein bL12 (Mycobacterium tuberculosis, UniProt P9WHE3)", "T2 construct": "gene rplL; 6His-tagged M. tuberculosis bL12", "T2 sequence (P9WHE3 1-130)": "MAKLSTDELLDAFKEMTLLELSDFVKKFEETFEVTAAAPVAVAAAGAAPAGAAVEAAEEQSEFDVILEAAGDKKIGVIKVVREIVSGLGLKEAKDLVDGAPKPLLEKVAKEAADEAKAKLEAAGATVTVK", "experiment": "biochemical", "assay_type": "binding"}, "[3]": {"test_system": "M. tuberculosis", "experiment": "microbe, parasite or virus in culture", "design": "species or system Mycobacterium tuberculosis H37Rv ΔRD1 ΔpanCD", "conditions": "Mycobacterium tuberculosis, 168 h, read-out: MIC"}, "[4]": {"test_system": "B. anthracis", "experiment": "microbe, parasite or virus in culture", "conditions": "Bacillus anthracis, 20 h, read-out: MIC"}, "[5]": {"test_system": "T3, E. coli ΔtolC", "T3 construct": "ΔtolC", "experiment": "microbe, parasite or virus in culture", "design": "species or system Escherichia coli ΔtolC; broth microdilution MIC, lowest concentration with no visible growth", "conditions": "Escherichia coli, 20 h, read-out: MIC"}, "[6]": {"target": "T4, ribosomal protein bL12 (Escherichia coli, UniProt P0A7K2)", "T4 construct": "gene rplL", "T4 sequence (P0A7K2 2-121)": "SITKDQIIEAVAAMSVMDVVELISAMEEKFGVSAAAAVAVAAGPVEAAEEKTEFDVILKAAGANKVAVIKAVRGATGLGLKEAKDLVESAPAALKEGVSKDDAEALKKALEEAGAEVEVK", "experiment": "biochemical", "assay_type": "binding"}}, "data": [{"molecule": "O=C(NC12CC3CC(CC(C3)C1)C2)c1cc2cc(Cl)ccc2[nH]1", "note": "[KKL-1781]", "values": [{"measurement": "% activation", "setting": "[1]", "value": 0, "unit": "%"}]}, {"molecule": "Cc1ccc2nc(C)c(C(=O)NCc3cccs3)n2c1", "note": "[KKL-1863]", "values": [{"measurement": "% activation", "setting": "[1]", "value": 4, "unit": "%"}]}, {"molecule": "Cc1cccc(-c2nc(Nc3ccncn3)c3c(C)csc3n2)n1", "note": "[KKL-1712]", "values": [{"measurement": "% activation", "setting": "[1]", "value": 6, "unit": "%"}]}, {"molecule": "c1cc2c(s1)CCOC21CCN(Cc2ccc3c(c2)OCCO3)CC1", "note": "[KKL-1815]", "values": [{"measurement": "% activation", "setting": "[1]", "value": 0, "unit": "%"}]}, {"molecule": "CC(C)[C@H]1OC(=O)[C@H](Cc2ccccc2)N(C)C(=O)[C@@H](C(C)C)OC(=O)[C@H](Cc2ccccc2)N(C)C(=O)[C@@H](C(C)C)OC(=O)[C@H](Cc2ccccc2)N(C)C1=O", "note": "[KKL-0304]", "values": [{"measurement": "% activation", "setting": "[1]", "value": 0, "unit": "%"}]}, {"molecule": "CCc1ccc([C@@H]2C[C@H](C(F)(F)F)n3ncc(C(=O)NCc4ccc(OC)cc4)c3N2)cc1", "note": "[KKL-1692]", "values": [{"measurement": "% activation", "setting": "[1]", "value": 0, "unit": "%"}]}, {"molecule": "COc1ccc(CCNc2cc(-c3ccccc3)nc3ncnn23)cc1", "note": "[KKL-1831]", "values": [{"measurement": "% activation", "setting": "[1]", "value": 3, "unit": "%"}]}, {"molecule": "CNc1nc(SC)nc2ccccc12", "note": "[KKL-1869]", "values": [{"measurement": "% activation", "setting": "[1]", "value": 0, "unit": "%"}]}, {"molecule": "Cc1cccc(-c2nc(Nc3ccncn3)c3sccc3n2)n1", "note": "[KKL-1695]", "values": [{"measurement": "% activation", "setting": "[1]", "value": 0, "unit": "%"}]}, {"molecule": "O=C(Nc1nc(NC(=O)c2ccco2)n(-c2ccccc2)n1)c1ccccc1", "note": "[KKL-1005, N-(5-benzamido-2-phenyl-1,2,4-triazol-3-yl)furan-2-carboxamide]", "values": [{"measurement": "Kd", "setting": "[2]", "value": "4 ± 0.2", "unit": "µM"}, {"measurement": "MIC", "setting": "[3]", "value": 4.7, "unit": "µg/mL"}, {"measurement": "MIC", "setting": "[4]", "value": 9.3, "unit": "µg/mL"}, {"measurement": "MIC", "setting": "[5]", "value": 9.3, "unit": "µg/mL"}, {"measurement": "Kd", "setting": "[6]", "value": "8 ± 2", "unit": "µM"}]}]}
